Test results taken from US20170281582A1, “ENHANCER FOR EATING ACTIVITY AND/OR GASTROINTESTINAL ACTIVITY” (KYOWA HAKKO BIO CO., LTD., priority 2012, published 2017).

How the values were obtained:
ddY mice = experiment: Small intestinal transit (Evans Blue mobility), gastrointestinal motility; assay type: in vivo; details: ddY mice fasted 18 hours, 30 minutes before test meal
Experimental: The symbol ** in the figure means a statistically significant difference (P<0.01) when comparing ornithine hydrochloride-administered group (3 g/kg) with control group, and the symbol in the figure means a statistically significant difference (P<0.001) when comparing ornithine hydrochloride-administered group (5 g/kg) with control group. Statistical processing was performed by using ANOVA and Fisher's test.
Gastrointestinal motility function was examined through small intestinal transit measurements according to the following testing method.
Male, 5 to 7-week ddY mice were used. […] After 30 minutes, the mice were orally administered with a dyed test meal (Evans Blue 5%, carboxymethyl cellulose 1%). The animals were killed by cervical dislocation after 5 minutes, and immediately cut open in the stomach to remove the whole small intestine. For evaluation of the gastrointestinal motility, the full length of the small intestine, and the length from the pylorus to the farthest point marked by the movement of Evans Blue were measured. Evans Blue mobility was calculated according to the following equation, and used as an index.
Mobility (%)=(the length from the pylorus to the farthest point marked by the movement of Evans Blue/the full length of small intestine)×100

Wistar rats = experiment: Blood growth hormone (GH) over time after intraduodenal administration; assay type: in vivo
Experimental: Statistical processing was performed by using ANOVA and Fisher's test.
Male, 8 to 9-week Wistar rats were used.

Compound | small intestinal transit compared to the control group (ddY mice; oral 3 g/kg (body weight), P<0.01 (FIG. 3)) | small intestinal transit compared to the control group (ddY mice; oral 5 g/kg (body weight), P<0.001 (FIG. 3)) | effect of the antagonist alone on blood GH (Wistar rats; D-Lys3-GHRP-6 0.8 mg/kg i.v. alone) | GH concentration increasing effect of ornithine in presence of ghrelin antagonist (Wistar rats; D-Lys3-GHRP-6 0.8 mg/kg i.v. plus ornithine hydrochloride 5 g/kg, vs ornithine hydrochloride alone, P<0.05 (FIG. 1))
Cl.NCCC[C@H](N)C(=O)O [ornithine hydrochloride, L-ornithine hydrochloride] | significantly increased | significantly increased |  | 
D-Lys3-GHRP-6 |  |  | does not show the effect | inhibited
